# Patent US7763615B2, “Ecteinascidin analogs for use as antitumour agents” (priority 2001, dated 2010)
# Experiments:
# Test in all cases: cells
# Type in all cases: cell-based
# MEL-28 = conditions: Homo sapiens, MEL-28, 48 hours exposure, SRB
# Procedure, shortened: (§1)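 Human tumour lines grown in RPMI 1640 with 10% FBS were seeded at 5×10^3 cells per well, left 18 hours to attach, then exposed to samples (10 to 10^−8 μg/ml) for 48 hours. Growth was quantified by sulphorhodamine B staining of TCA-fixed cells, with absorbance read at 490 nm.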
# SK-BR3 = conditions: Homo sapiens, SK-BR3, 48 hours exposure, SRB
# Procedure, shortened: as §1
# K562 = conditions: Homo sapiens, K562, 48 hours exposure, SRB
# Procedure, shortened: as §1
# IGROV = conditions: Homo sapiens, 48 hours exposure, SRB
# Procedure, shortened: as §1
# IGROV-ET = conditions: Homo sapiens, IGROV-ET, 48 hours exposure, SRB
# Procedure, shortened: as §1
# HT29 = conditions: Homo sapiens, HT-29, 48 h, HT29, 48 hours exposure, SRB
# Procedure, shortened: as §1
# DU145 = conditions: Homo sapiens, DU145, 48 hours exposure, SRB
# Procedure, shortened: as §1
# HELA = conditions: HELA, 48 hours exposure, SRB
# Procedure, shortened: as §1
# LNCAP = conditions: Homo sapiens, 48 hours exposure, SRB
# Procedure, shortened: as §1
# LOVO = conditions: Homo sapiens, 48 hours exposure, SRB
# Procedure, shortened: as §1
# A549 = conditions: Homo sapiens, A549, 48 h, A549, 48 hours exposure, SRB
# Procedure, shortened: as §1
# HELA-APL = test system: HELA-APL
# Procedure, shortened: as §1
# PANC-1 = conditions: Homo sapiens, PANC-1, 48 hours exposure, SRB
# Procedure, shortened: as §1
# LOVO-DOX = conditions: Homo sapiens, LOVO-DOX, 48 hours exposure, SRB
# Procedure, shortened: as §1
# [1] = read-out: LC50 (the source's name)
smiles,measurement,setting,value
C=COC(=O)Oc1c(C)c2c(c3c1[C@H]1SC[C@]4(NCCC5c6ccccc6NC54)C(=O)OC[C@@H]3N3C1[C@H]1c4c(cc(C)c(OC)c4OC(=O)OC=C)C[C@@H]([C@@H]3C#N)N1C)OCO2 (stereo partly drawn) [Compound 68],GI50,"MEL-28; SK-MEL-28, 48 h",7.52 nM
same,IC (TGI),"MEL-28; SK-MEL-28, 48 h",22.4 nM
same,CC50,"MEL-28; SK-MEL-28, read-out: LC50 (the source's name)",67.2 nM
same,GI50,"SK-BR3; SK-BR-3, 48 h",29 nM
same,IC (TGI),"SK-BR3; SK-BR-3, 48 h",60.9 nM
same,CC50,"SK-BR3; SK-BR-3, read-out: LC50 (the source's name)",206 nM
same,GI50,"K562; K562, 48 h",20.4 nM
same,IC (TGI),"K562; K562, 48 h",44.7 nM
same,CC50,K562; [1],97.5 nM
same,GI50,IGROV; 48 h,21.7 nM
same,IC (TGI),IGROV; 48 h,61.6 nM
same,CC50,IGROV; [1],1090 nM
same,GI50,IGROV-ET; 48 h,30.8 nM
same,IC (TGI),IGROV-ET; 48 h,68.9 nM
same,CC50,IGROV-ET; [1],206 nM
same,GI50,HT29,317 nM
same,IC (TGI),HT29,95.9 nM
same,CC50,HT29; [1],11700 nM
same,GI50,"DU145; DU-145, 48 h",29.9 nM
same,IC (TGI),"DU145; DU-145, 48 h",86.5 nM
same,CC50,"DU145; DU-145, read-out: LC50 (the source's name)",10300 nM
same,TGI,HELA,6.03E−08 Molar
same,GI50,HELA; Homo sapiens,32.5 nM
same,CC50,"HELA; Homo sapiens, read-out: LC50 (the source's name)",112 nM
same,GI50,"LNCAP; LNCaP, 48 h",11.5 nM
same,IC (TGI),"LNCAP; LNCaP, 48 h",26.6 nM
same,CC50,"LNCAP; LNCAP, read-out: LC50 (the source's name)",61.3 nM
same,GI50,"LOVO; LoVo, 48 h",27.1 nM
same,IC (TGI),"LOVO; LoVo, 48 h",49.7 nM
same,CC50,"LOVO; LOVO, read-out: LC50 (the source's name)",91.3 nM
same,GI50,A549; read-out: GI50,28.3 nM
same,CC50,A549; [1],101 nM
same,IC (TGI),A549; read-out: TGI,49.5 nM
same,TGI,"HELA-APL; HELA-APL, 48 hours exposure, SRB",6.19E−08 Molar
same,GI50,"HELA-APL; Homo sapiens, 48 h",37 nM
same,CC50,"HELA-APL; Homo sapiens, HELA-APL, 48 hours exposure, SRB, read-out: LC50 (the source's name)",103 nM
same,GI50,"PANC-1; PANC-1, 48 h",48.1 nM
same,IC (TGI),"PANC-1; PANC-1, 48 h",125 nM
same,CC50,PANC-1; [1],11700 nM
same,GI50,LOVO-DOX; 48 h,112 nM
same,IC (TGI),LOVO-DOX; 48 h,743 nM
same,CC50,LOVO-DOX; [1],11700 nM
